Our source for the EC50 and activation values is patent US20170354639A1, “DITERPENOID DERIVATIVES AND METHODS OF USE THEREOF” (Biogen MA Inc., priority 2014, published 2017).

Each structure is given as a SMILES string.

The assay has as its target Nrf2-Keap1 (Homo sapiens, UniProt Q14145). The experiment in a line: DiscoveRx PathHunter Nrf2-Keap1 nuclear translocation functional assay (agonist format). The assay is classed as cell-based. The settings on record: in duplicate, agonist mode; for EC50: 10 concentrations, 3-fold serial dilutions, 30 μM top concentration, normalized to CDDO methyl ester and vehicle; for activation at 10 µM: single concentration of 10 μM, normalized to control ligand (CDDO methyl ester) and vehicle. Here is the method:
DiscoveRx PathHunter® Nrf2-Keap1 Functional Assay
DiscoveRx's Nrf2-Keapl translocation assay was used to profile compounds. Primary Screening was performed in duplicate at a single concentration of 10 μM and EC50 determinations were performed in duplicate at 10 concentrations with 3-fold serial dilutions at a 30 μM top concentration or an otherwise specified top concentration.
The PathHunter® Nuclear Translocation assay detects translocation of a target protein to, or from, the nucleus. In this system, Prolink™ (PK), a small enzyme fragment, is fused to the protein of interest and Enzyme Acceptor (EA) is localized in the nucleus. Activation of the signaling pathway induces the target protein to either transit into the nucleus, thus forcing complementation of the PK and EA fragments, or out of the nucleus, hindering complementation of the fragments.
Cell handling: PathHunter Pathway cell lines were expanded from freezer stocks according to standard procedures. 5000 cells were seeded in Cell Plating Reagent 0 (containing 1% FBS) to a total volume of 20 μL into white walled, 384-well microplates and incubated for the overnight prior to testing.
Agonist format: For Agonist determination, cells were incubated with sample to induce response. Dilution of sample stocks was performed to generate 100× sample in DMSO. Intermediate dilution of sample stocks was performed to generate 5× sample in assay buffer (Cell Plating Reagent 0 containing 1% FBS). 5 μL of 5× sample was added to cells and incubated at room temperature for 6 hours. Vehicle concentration was 1%.
Signal detection: Assay signal was generated through a single addition of 25 μL (100% v/v) of PathHunter Flash Detection reagent, followed by a one hour incubation at room temperature. Microplates were read following signal generation with a PerkinElmer Envision™ instrument for chemiluminescent signal detection.
Data analysis: Compound activity was analyzed using CBIS data analysis suite (ChemInnovation, CA). For agonist mode assays, percentage activity was calculated using the following formula: % Activity=100%×(mean RLU of test sample−mean RLU of vehicle control)/(mean MAX RLU control ligand−mean RLU of vehicle control). For EC50 determination, a control agonist dose response curve was generated in the Keap 1-Nrf2 biosensor assay, data was normalized to the maximal and minimal response observed in the presence of the control ligand and vehicle respectively. CDDO methyl ester was used as a control compound. Compounds were tested in the agonist mode of the assay and data was normalized to the maximal and minimal response observed in the presence of control ligand and vehicle.

Chain of Nrf2-Keap1 (Q14145 whole entry): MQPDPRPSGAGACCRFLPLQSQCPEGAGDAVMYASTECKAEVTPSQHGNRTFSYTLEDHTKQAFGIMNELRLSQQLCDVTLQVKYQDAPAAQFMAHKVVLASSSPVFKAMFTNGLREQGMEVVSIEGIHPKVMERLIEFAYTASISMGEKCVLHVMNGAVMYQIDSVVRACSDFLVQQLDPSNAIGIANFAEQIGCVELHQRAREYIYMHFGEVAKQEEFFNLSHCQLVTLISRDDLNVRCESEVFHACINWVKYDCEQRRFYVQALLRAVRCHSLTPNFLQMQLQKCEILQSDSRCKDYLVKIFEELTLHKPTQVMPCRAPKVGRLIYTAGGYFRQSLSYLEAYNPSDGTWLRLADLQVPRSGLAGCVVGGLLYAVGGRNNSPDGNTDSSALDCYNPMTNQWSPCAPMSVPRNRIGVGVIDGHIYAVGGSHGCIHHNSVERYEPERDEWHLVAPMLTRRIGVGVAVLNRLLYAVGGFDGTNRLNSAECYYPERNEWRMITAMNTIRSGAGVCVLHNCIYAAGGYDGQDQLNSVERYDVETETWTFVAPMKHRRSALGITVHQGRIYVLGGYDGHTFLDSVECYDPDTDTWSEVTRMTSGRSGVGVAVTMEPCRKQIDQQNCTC

`C=C1CC[C@@H]2[C@@H](C)[C@](O)(C(F)(F)F)CC[C@@]2(C)[C@@H]1C/C=C1/C(=O)OC[C@H]1O` [Example 42A, (S,E)-4-hydroxy-3-(2-((1R,4aR,5R,6S,8aR)-6-hydroxy-5,8a-dimethyl-2-methylene-6-(trifluoromethyl)decahydronaphthalen-1-yl)ethylidene)dihydrofuran-2(3H)one] showed an EC50 of less than 0.5 µM. Molecule `CC1=CC[C@@H]2[C@@H](C)[C@H](O)CC[C@@]2(C)[C@@H]1C/C=C1/C(=O)OC[C@H]1O` [Example 3, (S,E)-4-hydroxy-3-(2-((1R,4aR,5R,6R,8aR)-6-hydroxy-2,5,8a-trimethyl-1,4,4a,5,6,7,8,8a-octahydronaphthalen-1-yl)ethylidene)dihydrofuran-2(3H)-one] had an EC50 of less than 0.5 µM. The molecule also came in with an activation at 10 µM (6 h) greater than 100%. `C=C1CC[C@@H]2[C@@H](C)[C@@H](O)CC[C@@]2(C)[C@@H]1C/C=C1/C(=O)OC[C@H]1O` [Example 1, (S,E)-4-hydroxy-3-(2-((1R,4aR,5R,6S,8aR)-6-hydroxy-5,8a-dimethyl-2-methylenedecahydronaphthalen-1-yl)ethylidene)dihydrofuran-2(3H)-one]: the EC50 lay within 0.5 to 2 µM. The molecule further had an activation at 10 µM (6 h) of 51 to 100%. Molecule `C=C1CC[C@@H]2[C@@H](C)[C@@](O)(C(F)(F)F)CC[C@@]2(C)[C@@H]1C/C=C1/C(=O)OCC1NC=O` (single isomer, unassigned) [Example 43A] registered an EC50 of 0.5 to 2 µM. Turning to `C=C1CC[C@@H]2[C@@H](C)[C@H](O)CC[C@@]2(C)[C@@H]1C/C=C1/C(=O)OC[C@H]1O` [Example 2, (S,E)-4-hydroxy-3-(2-((1R,4aR,5R,6R,8aR)-6-hydroxy-5,8a-dimethyl-2-methylenedecahydronaphthalen-1-yl)ethylidene)dihydrofuran-2(3H)-one], the EC50 is less than 0.5 µM. This molecule also had an activation at 10 µM (6 h) greater than 100%.

`C=C1CC[C@@H]2[C@@H](C)[C@](O)(C(F)(F)F)CC[C@@]2(C)[C@@H]1C/C=C1/C(=O)OCC1NC=O` (single isomer, unassigned) [Example 44A] came in with an EC50 greater than 2 µM. For `C=C1CC[C@H]2[C@@](C)(CC[C@@]3(C)ON=C[C@@]23C)[C@@H]1C/C=C1/C(=O)OC[C@H]1O` [Example 14, (S,E)-4-hydroxy-3-(2-((3aR,5aS,6R,9aS,9bR)-3a,5a,9b-trimethyl-7-methylene-3a,4,5,5a,6,7,8,9,9a,9b-decahydronaphtho[1,2-d]isoxazol-6-yl)ethylidene)dihydrofuran-2(3H)-one], the EC50 was greater than 2 µM. The same molecule came in with an activation at 10 µM (6 h) greater than 100%. In turn, `C=C1CC[C@@H]2[C@]3(C)CO[S@](=O)O[C@@H]3CC[C@@]2(C)[C@@H]1C/C=C1/C(=O)OC[C@H]1O` [Example 8, (S,E)-3-(2-((3S, 4aR, 6aS, 7R, 10aS, 10bR)-6a,10b-dimethyl-8-methylene-3-oxidodecahydro-1H-naphtho[2,1-d][1,3,2]dioxathiin-7-yl)ethylidene)-4-hydroxydihydrofuran-2(3H)-one] displayed an EC50 of 0.5 to 2 µM. Further, under “6 h”, the activation at 10 µM was greater than 100%. On to `C=C1CC[C@@H]2[C@]3(C)C=NO[C@@H]3CC[C@@]2(C)[C@@H]1C/C=C1/C(=O)OC[C@H]1O` [Example 12, (S,E)-3-(2-((3aR,5aS,6R,9aS,9bR)-5a,9b-dimethyl-7-methylene-3a,4,5,5a,6,7,8,9,9a,9b-decahydronaphtho[1,2-d]isoxazol-6-yl)ethylidene)-4-hydroxydihydrofuran-2(3H)-one], for which the EC50 is 0.5 to 2 µM. The molecule further displayed an activation at 10 µM (6 hours) of 51 to 100%. The molecule `CC1(C)CCC[C@@]2(C)[C@H]1CCC1(CC1)[C@@H]2C/C=C1\C(=O)OC[C@H]1NC=O` [Example 25, N—((S,Z)-5-oxo-4-(2-((1′S,4a′S,8a′S)-5′,5′,8a′-trimethyloctahydro-1′H-spiro[cyclopropane-1,2′-naphthalen]-1′-yl)ethylidene)tetrahydrofuran-3-yl)formamide] yielded an activation at 10 µM (6 h) of 51 to 100%.

Broadly, the EC50 is the concentration giving half of the maximal effect. High values mean lower potency in that assay, low ones higher potency in that assay.
